Test results: US12552811B2, “Immunosuppressant, and preparation method therefor and use thereof” (Abbisko Therapeutics Co., Ltd., priority 2020, dated 2026)

Assay: Jurkat reporter gene cellular assay
Assay type: cell-based
Details: Homo sapiens; Jurkat/NF-κB-luc/PD1 + Raji-PD-L1 coculture, OKT3 1 μg/mL, 6 hrs, activation fold; read-out: Cell Activity EC50
Experimental: The effect of compounds of the examples of the present invention and positive compounds on the interaction between PD-1 and PD-L1 expressed on cell surfaces, and the related influence on T cell functions, were determined by a Jurkat reporter gene cellular assay.
Briefly, the reporter gene plasmid of NF-κB-luc and the plasmid of human PD-1 were transfected into Jurkat cells to establish a stably transfected cell line capable of stably expressing both PD-1 and NF-κB-Luc reporter genes; the expression level of PD-1 on the cell surface was confirmed by flow cytometry; and the expression of the reporter gene was confirmed via the response of the reporter gene stimulated by OKT-3 and Raiji cells.
In addition, the plasmid of human PD-L1 was transfected into Raji cells to obtain a cell line capable of stably expressing PD-L1. Jurkat/NF-κB-luc/PD1 cells and Raji-PD-L1 cells were then cocultured and stimulated with OKT-3. On this basis, the compounds were added, and the enhancement of the signal pathway of T cell activation by the inhibitory effect of the compounds on the interaction between PD-1 and PD-L1 was evaluated by readings of reporter gene responses. The specific experimental process was as follows: • 1) 30 μL of compound or antibody solution was added to each well of a white 96-well plate (coming, 3610) at different diluted concentrations, and 10 μL of OKT3 (Biolegend, 317326) was then added (the final concentration of OKT3: 1 μg/mL); • 2) 20 μL of Raji-PD-L1 cell suspension was added to each well with 5*10^4 cells for each well, and was incubated in an incubator for 20 min: • 3) 20 μL of Jurkat/NF-κb-luc/PD-1 cell suspension was added to each well with 5*10^4 cells for each well, and well mixed, and 6 hrs later, Bright-glo (Promega, E2620) was applied and plates were read on Envision; • 4) The reading of each well treated with the compound was compared with the reading of each well treated with DMSO to obtain the activation fold of the compound; • 5) EC50 values of compounds and positive compounds of the examples of the present invention were determined by non-linear regression analysis of activation folds at different compound concentrations.

Structure (SMILES)	EC50 [µM]
Cn1c(C(=O)Nc2cccc(-c3cccc(NC(=O)c4cc5c(cn4)CN(C4CCC4)CC5)c3Cl)c2Cl)nc2c1CCN(CCC13CCC(C(=O)O)(CC1)C3)C2 [Example 5, 4-(2-(2-((2,2′-dichloro-3′-(7-cyclobutyl-5,6,7,8-tetrahydro-2,7-naphthyridine-3-carboxamido)-[1,1′-biphenyl]-3-yl)carbamoyl)-1-methyl-1,4,6,7-tetrahydro-5H-imidazo[4,5-c]pyridin-5-yl)ethyl)bicyclo [2.2.1]heptane-1-carboxylic acid]	0.108
C[C@@H](O)CN1CCc2cc(C(=O)Nc3cccc(-c4cccc(NC(=O)c5nc6c(n5C)CCN(CCC57CCC(C(=O)O)(CC5)C7)C6)c4Cl)c3Cl)ncc2C1 [Example 8, (R)-4-(2-(2-((2,2′-dichloro-3′-(7-(2-hydroxypropyl)-5,6,7,8-tetrahydro-2,7-naphthyridine-3-carboxamido)-[1,1′-biphenyl]-3-yl)carbamoyl)-1-methyl-1,4,6,7-tetrahydro-5H-imidazo[4,5-c]pyridin-5-yl)ethyl)bicyclo[2.2.1]heptane-1-carboxylic acid]	0.0598
Cn1c(C(=O)Nc2cccc(-c3cccc(NC(=O)c4cc5c(cn4)CN(CCCO)CC5)c3Cl)c2Cl)nc2c1CCN(CCC13CCC(C(=O)O)(CC1)C3)C2 [Example 9, 4-(2-(2-((2,2′-dichloro-3′-(7-(3-hydroxypropyl)-5,6,7,8-tetrahydro-2,7-naphthyridine-3-carboxamido)-[1,1′-biphenyl]-3-yl)carbamoyl)-1-methyl-1,4,6,7-tetrahydro-5H-imidazo[4,5-c]pyridin-5-yl)ethyl) bicyclo[2.2.1]heptane-1-carboxylic acid]	0.177
Cn1c(C(=O)Nc2cccc(-c3cccc(NC(=O)c4cc5c(cn4)CN([C@H]4CC[C@@H](O)CC4)CC5)c3Cl)c2Cl)nc2c1CCN(CCC13CCC(C(=O)O)(CC1)C3)C2 [Example 12, 4-(2-(2-((2,2′-dichloro-3′-(7-((1S,4S)-4-hydroxycyclohexyl)-5,6,7,8-tetrahydro-2,7-naphthyridine-3-carboxamido)-[1,1′-biphenyl]-3-yl)carbamoyl)-1-methyl-1,4,6,7-tetrahydro-5H-imidazo[4,5-c]pyridin-5-yl)ethyl)bicyclo[2.2.1]heptane-1-carboxylic acid]	0.114
Cn1c(C(=O)Nc2cccc(-c3cccc(NC(=O)c4cc5c(cn4)CN(CCC(C)(C)O)CC5)c3Cl)c2Cl)nc2c1CCN(CCC13CCC(C(=O)O)(CC1)C3)C2 [Example 13, 4-(2-(2-((2,2′-dichloro-3′-(7-(3-hydroxy-3-methylbutyl)-5,6,7,8-tetrahydro-2,7-naphthyridine-3-carboxamido)-[1,1′-biphenyl]-3-yl)carbamoyl)-1-methyl-1,4,6,7-tetrahydro-5H-imidazo[4,5-c]pyridin-5-yl)ethyl)bicyclo[2.2.1]heptane-1-carboxylic acid]	0.0789
CN(C)C(=O)CCCCN1CCc2cc(C(=O)Nc3cccc(-c4cccc(NC(=O)c5nc6c(n5C)CCN(CCC57CCC(C(=O)O)(CC5)C7)C6)c4Cl)c3Cl)ncc2C1 [Example 16, 4-(2-(2-((2,2′-dichloro-3′-(7-(5-(dimethylamino)-5-oxopentyl)-5,6,7,8-tetrahydro-2,7-naphthyridine-3-carboxamido)-[1,1′-biphenyl]-3-yl)carbamoyl)-1-methyl-1,4,6,7-tetrahydro-5H-imidazo[4,5-c]pyridin-5-yl)ethyl)bicyclo[2.2.1]heptane-1-carboxylic acid]	0.0835
CC(C)N1CCc2cc(C(=O)Nc3cccc(-c4cccc(NC(=O)c5nc6c(n5C)CCN(CCC57CCC(C(=O)O)(CC5)C7)C6)c4Cl)c3Cl)ncc2C1C (stereo not shown) [Example 18, 4-(2-(2-((2,2′-dichloro-3′-(7-isopropyl-8-methyl-5,6,7,8-tetrahydro-2,7-naphthyridine-3-carboxamido)-[1,1′-biphenyl]-3-yl)carbamoyl)-1-methyl-1,4,6,7-tetrahydro-5H-imidazo[4,5-c]pyridin-5-yl)ethyl) bicyclo[2.2.1]heptane-1-carboxylic acid]	0.0907
CC(C)N1CCc2cc(C(=O)Nc3cccc(-c4cccc(NC(=O)c5nc6c(n5C)CCN(CC57CCC(C(=O)O)(CC5)C7)C6)c4Cl)c3Cl)ncc2C1 [Example 19, 4-((2-((2,2′-dichloro-3′-(7-isopropyl-5,6,7,8-tetrahydro-2,7-naphthyridine-3-carboxamido)-[1,1′-biphenyl]-3-yl)carbamoyl)-1-methyl-1,4,6,7-tetrahydro-5H-imidazo[4,5-c]pyridin-5-yl)methyl)bicyclo[2.2.1] heptane-1-carboxylic acid]	0.0588
CC(C)N1CCc2cc(C(=O)Nc3cccc(-c4cccc(NC(=O)c5nc6c(n5C)CCN(CC[C@H]5CC[C@H](C(=O)O)CC5)C6)c4Cl)c3Cl)ncc2C1 [Example 23, (1R,4R)-4-(2-(2-((2,2′-dichloro-3′-(7-isopropyl-5,6,7,8-tetrahydro-2,7-naphthyridine-3-carboxamido)-[1,1′-biphenyl]-3-yl)carbamoyl)-1-methyl-1,4,6,7-tetrahydro-5H-imidazo[4,5-c]pyridin-5-yl)ethyl) cyclohexane-1-carboxylic acid]	0.0607
Cn1c(C(=O)Nc2cccc(-c3cccc(NC(=O)c4cc5c(cn4)CN([C@H]4CCC[C@@H]4O)CC5)c3Cl)c2Cl)nc2c1CCN(CCC13CCC(C(=O)O)(CC1)C3)C2 [Example 61, 4-(2-(2-((2,2′-dichloro-3′-(7-((1S,2S)-2-hydroxycyclopentyl)-5,6,7,8-tetrahydro-2,7-naphthyridine-3-carboxamido)-[1,1′-biphenyl]-3-yl)carbamoyl)-1-methyl-1,4,6,7-tetrahydro-5H-imidazo[4,5-c]pyridin-5-yl)ethyl)bicyclo[2.2.1]heptane-1-carboxylic acid]	0.0832
Cn1c(C(=O)Nc2cccc(-c3cccc(NC(=O)c4cc5c(cn4)CN(CC4(O)CC4)CC5)c3Cl)c2Cl)nc2c1CCN(CCC13CCC(C(=O)O)(CC1)C3)C2 [Example 62, 4-(2-(2-((2,2′-dichloro-3′-(7-((1-hydroxycyclopropyl)methyl)-5,6,7,8-tetrahydro-2,7-naphthyridine-3-carboxamido)-[1,1′-biphenyl]-3-yl)carbamoyl)-1-methyl-1,4,6,7-tetrahydro-5H-imidazo[4,5-c]pyridin-5-yl)ethyl)bicyclo[2.2.1]heptane-1-carboxylic acid]	0.0763
Cn1c(C(=O)Nc2cccc(-c3cccc(NC(=O)c4cc5c(cn4)CN([C@H]4CC[C@H](O)CC4)CC5)c3Cl)c2Cl)nc2c1CCN(CCC13CCC(C(=O)O)(CC1)C3)C2 [Example 63, 4-(2-(2-((2,2′-dichloro-3′-(7-((1R,4R)-4-hydroxycyclohexyl)-5,6,7,8-tetrahydro-2,7-naphthyridine-3-carboxamido)-[1,1′-biphenyl]-3-yl)carbamoyl)-1-methyl-1,4,6,7-tetrahydro-5H-imidazo[4,5-c]pyridin-5-yl)ethyl)bicyclo[2.2.1]heptane-1-carboxylic acid]	0.104
Cn1c(C(=O)Nc2cccc(-c3cccc(NC(=O)c4cc5c(cn4)CN(C4CCCC4)CC5)c3Cl)c2Cl)nc2c1CCN(CCC13CCC(C(=O)O)(CC1)C3)C2 [Example 64, 4-(2-(2-((2,2′-dichloro-3′-(7-cyclopentyl-5,6,7,8-tetrahydro-2,7-naphthyridine-3-carboxamido)-[1,1′-biphenyl]-3-yl)carbamoyl)-1-methyl-1,4,6,7-tetrahydro-5H-imidazo[4,5-c]pyridin-5-yl)ethyl)bicyclo [2.2.1]heptane-1-carboxylic acid]	0.155
Cn1c(C(=O)Nc2cccc(-c3cccc(NC(=O)c4cc5c(cn4)CN(C4CCC(C)(C(=O)O)CC4)CC5)c3Cl)c2Cl)nc2c1CCN(CCC13CCC(C(=O)O)(CC1)C3)C2 (stereo not shown) [Example 65, 4-(2-(2-((3′-(7-(4-carboxy-4-methylcyclohexyl)-5,6,7,8-tetrahydro-2,7-naphthyridine-3-carboxamido)-2,2′-dichloro-[1,1′-biphenyl]-3-yl)carbamoyl)-1-methyl-1,4,6,7-tetrahydro-5H-imidazo[4,5-c]pyridin-5-yl)ethyl)bicyclo[2.2.1]heptane-1-carboxylic acid]	0.122
CC(C)N1CCc2cc(C(=O)Nc3cccc(-c4cccc(NC(=O)c5cc6c(cn5)CN(C(C)C)CC6)c4Cl)c3Cl)ncc2C1 [Example 66]	> 10
CC(C)N1CCc2cc(C(=O)Nc3cccc(-c4cccc(NC(=O)c5cc6c(cn5)CN(CCC57CCC(C(=O)O)(CC5)C7)CC6)c4Cl)c3Cl)ncc2C1 [Example 67, 4-(2-(6-((2,2′-dichloro-3′-(7-isopropyl-5,6,7,8-tetrahydro-2,7-naphthyridine-3-carboxamido)-[1,1′-biphenyl]-3-yl)carbamoyl)-3,4-dihydro-2,7-naphthyridin-2(1H)-yl)ethyl)bicycio[2.2.1]heptane-1-carboxylic acid]	1.66
